Measured values: ChEMBL document CHEMBL1133396, “Construction of HIV Rev peptides containing peptide nucleic acid that bind HIV RRE IIB RNA” (Bioorg Med Chem Lett, 2000)
Peptide text beside a SMILES is read from it.

These compounds were tested against Nucleic Acid (assay: Dissociation constant against stem loop IIB region of RRE-response element RNA was reported).
Assay type: nucleic-acid assay, Human immunodeficiency virus 1

SMILES	Kd
C[C@H](NC(=O)[C@H](CCC(N)=O)NC(=O)[C@H](CCCNC(=N)N)NC(=O)[C@@H](NC(=O)CCC(=O)O)[C@@H](C)O)C(=O)N[C@@H](CCCNC(=N)N)C(=O)N[C@@H](CCCNC(=N)N)C(=O)N[C@@H](CC(N)=O)C(=O)N[C@@H](CCCNC(=N)N)C(=O)N[C@@H](CCCNC(=N)N)C(=O)N[C@@H](CCCNC(=N)N)C(=O)N[C@@H](CCCNC(=N)N)C(=O)N[C@@H](Cc1c[nH]c2ccccc12)C(=O)N[C@@H](CCCNC(=N)N)C(=O)N[C@@H](CCC(=O)O)C(=O)N[C@@H](CCCNC(=N)N)C(=O)N[C@@H](CCC(N)=O)C(=O)NCCN(CC(N)=O)C(=O)Cn1ccc(N)nc1=O (HELM PEPTIDE1{[O=C(O)CCC(=O)[*:2]].T.R.Q.A.R.R.N.R.R.R.R.W.R.E.R.Q.[NC(=O)CN(CCN[*:1])C(=O)Cn1ccc(N)nc1=O]}$$$$V2.0)	21 nM
C[C@H](NC(=O)[C@H](CCC(N)=O)NC(=O)[C@H](CCCNC(=N)N)NC(=O)[C@@H](NC(=O)CCC(=O)O)[C@@H](C)O)C(=O)N[C@@H](CCCNC(=N)N)C(=O)N[C@@H](CCCNC(=N)N)C(=O)N[C@@H](CC(N)=O)C(=O)N[C@@H](CCCNC(=N)N)C(=O)N[C@@H](CCCNC(=N)N)C(=O)N[C@@H](CCCNC(=N)N)C(=O)NCCN(CC(=O)N[C@@H](Cc1c[nH]c2ccccc12)C(=O)N[C@@H](CCCNC(=N)N)C(=O)N[C@@H](CCC(=O)O)C(=O)N[C@@H](CCCNC(=N)N)C(=O)N[C@@H](CCC(N)=O)C(=O)N[C@@H](CCCNC(=N)N)C(N)=O)C(=O)Cn1ccc(N)nc1=O	240 nM
C[C@H](NC(=O)[C@H](CCC(N)=O)NC(=O)[C@H](CCCNC(=N)N)NC(=O)[C@@H](NC(=O)CCC(=O)O)[C@@H](C)O)C(=O)N[C@@H](CCCNC(=N)N)C(=O)NCCN(CC(=O)N[C@@H](CC(N)=O)C(=O)N[C@@H](CCCNC(=N)N)C(=O)N[C@@H](CCCNC(=N)N)C(=O)N[C@@H](CCCNC(=N)N)C(=O)N[C@@H](CCCNC(=N)N)C(=O)N[C@@H](Cc1c[nH]c2ccccc12)C(=O)N[C@@H](CCCNC(=N)N)C(=O)N[C@@H](CCC(=O)O)C(=O)N[C@@H](CCCNC(=N)N)C(=O)N[C@@H](CCC(N)=O)C(=O)N[C@@H](CCCNC(=N)N)C(N)=O)C(=O)Cn1ccc(N)nc1=O	420 nM
C[C@H](NC(=O)[C@H](CCC(N)=O)NC(=O)[C@H](CCCNC(=N)N)NC(=O)[C@@H](NC(=O)CCC(=O)O)[C@@H](C)O)C(=O)N[C@@H](CCCNC(=N)N)C(=O)N[C@@H](CCCNC(=N)N)C(=O)N[C@@H](CC(N)=O)C(=O)N[C@@H](CCCNC(=N)N)C(=O)N[C@@H](CCCNC(=N)N)C(=O)N[C@@H](CCCNC(=N)N)C(=O)N[C@@H](CCCNC(=N)N)C(=O)N[C@@H](Cc1c[nH]c2ccccc12)C(=O)N[C@@H](CCCNC(=N)N)C(=O)N[C@@H](CCC(=O)O)C(=O)N[C@@H](CCCNC(=N)N)C(=O)N[C@@H](CCC(N)=O)C(=O)NCCN(CC(N)=O)C(=O)Cn1cnc2c(N)ncnc21 (HELM PEPTIDE1{[O=C(O)CCC(=O)[*:2]].T.R.Q.A.R.R.N.R.R.R.R.W.R.E.R.Q.[NC(=O)CN(CCN[*:1])C(=O)Cn1cnc2c(N)ncnc21]}$$$$V2.0)	10 nM

Second part, the compound after the results:

Kd	SMILES
8 nM	C[C@H](NC(=O)[C@H](CCC(N)=O)NC(=O)[C@H](CCCNC(=N)N)NC(=O)[C@@H](NC(=O)CCC(=O)O)[C@@H](C)O)C(=O)N[C@@H](CCCNC(=N)N)C(=O)N[C@@H](CCCNC(=N)N)C(=O)N[C@@H](CC(N)=O)C(=O)N[C@@H](CCCNC(=N)N)C(=O)N[C@@H](CCCNC(=N)N)C(=O)N[C@@H](CCCNC(=N)N)C(=O)N[C@@H](CCCNC(=N)N)C(=O)N[C@@H](Cc1c[nH]c2ccccc12)C(=O)N[C@@H](CCCNC(=N)N)C(=O)N[C@@H](CCC(=O)O)C(=O)N[C@@H](CCCNC(=N)N)C(=O)N[C@@H](CCC(N)=O)C(=O)N[C@@H](CCCNC(=N)N)C(=O)NCC(N)=O (HELM PEPTIDE1{[O=C(O)CCC(=O)[*:2]].T.R.Q.A.R.R.N.R.R.R.R.W.R.E.R.Q.R.G.[am]}$$$$V2.0)
42 nM	C[C@H](NC(=O)[C@H](CCC(N)=O)NC(=O)[C@H](CCCNC(=N)N)NC(=O)[C@@H](NC(=O)CCC(=O)O)[C@@H](C)O)C(=O)N[C@@H](CCCNC(=N)N)C(=O)N[C@@H](CCCNC(=N)N)C(=O)N[C@@H](CC(N)=O)C(=O)N[C@@H](CCCNC(=N)N)C(=O)N[C@@H](CCCNC(=N)N)C(=O)N[C@@H](CCCNC(=N)N)C(=O)N[C@@H](CCCNC(=N)N)C(=O)N[C@@H](Cc1c[nH]c2ccccc12)C(=O)N[C@@H](CCCNC(=N)N)C(=O)N[C@@H](CCC(=O)O)C(=O)N[C@@H](CCCNC(=N)N)C(=O)N[C@@H](CCC(N)=O)C(=O)NCC(=O)NCC(N)=O (HELM PEPTIDE1{[O=C(O)CCC(=O)[*:2]].T.R.Q.A.R.R.N.R.R.R.R.W.R.E.R.Q.G.G.[am]}$$$$V2.0)
